The source of these data is patent US7998940B2, “Aptamers to von Willebrand factor and their use as thrombotic disease therapeutics” (Archemix Corp., priority 2004, dated 2011).

Where two headings read alike, the source gives them in different places. Oligonucleotides are written 5' to 3', each unit as a sugar letter and its base; * is a phosphorothioate linkage, no mark a phosphodiester; rarer units and linkages stand in square brackets, end groups in braces. Plain capitals give the bases only. [PEG] = polyethylene glycol spacer within the chain; [invdT] = inverted (3'-3') thymidine; d = 2'-deoxy (DNA); m = 2'-O-methyl; r = 2'-OH (RNA); f = 2'-fluoro

In series [1] the test system is full length human vWF (SEQ ID NO 7). Description: dot blot KD determination and extent of binding, full length human vWF.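 For all read-outs here: dot blot binding of aptamers to full length human vWF across a protein titration, incubated 30 minutes at room temperature in 1x DPBS with BSA.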 The following applies: for % binding @ 100 nM vWF: extent of aptamer binding at 100 nM full length human vWF; for Kd: full length human vWF, read-out: KD.
Series [2] concerns the target human vWF A1 domain (SEQ ID NO 5) (Homo sapiens, UniProt P04275, T1381A). Put plainly: 3-point dot blot screen, human vWF A1 domain. As to conditions: rRfY aptamers; 100 nM human vWF A1 domain; ratio of fraction bound with target to fraction bound without target. The class given is binding. The source says:
(§1) When a significant positive ratio of binding of RNA in the presence of human or rabbit vWF A1 domain versus in the absence of protein was seen, the pools were cloned using the TOPO TA cloning kit (Invitrogen, Cat. #45-0641, Carlsbad, Calif.) according to the manufacturer's instructions. Round 9 and 12 pool templates were cloned and sequenced (125 total sequences), producing 48 unique clones. All unique clones were transcribed, desalted, 5-^32P end-labeled, and assayed in a 3-point dot blot screen (no protein target control, 100 nM human vWF A1 domain (SEQ ID NO 5, FIG. 3), or 100 nM rabbit vWF A1 domain (SEQ ID NO 6, FIG. 3). The data is presented in the third and fourth columns of Table 4 below as the ratio of the fraction of the aptamer bound to the nitrocellulose in the presence of the target protein to the fraction of aptamer bound in the absence of the target protein.
(§2) When a significant positive ratio of binding of RNA in the presence of human or rabbit vWF A1 domain (SEQ ID NOS 4 and 6, respectively) versus in the absence of protein was seen, the pools were cloned using the TOPO TA cloning kit (Invitrogen Cat. #45-0641, Carlsbad, Calif.) according to the manufacturer's instructions. Round 9 and 12 pool templates were cloned and sequenced (185 total sequences), producing 78 unique clones within 3 sequence families. All unique clones were transcribed, desalted, 5-^32P end-labeled, and assayed in a 3-point dot blot screen (no protein target control, 100 nM human vWF A1 domain (SEQ ID NO 5), or 100 nM rabbit vWF A1 domain (SEQ ID NO 6). The data are presented in the third and fourth columns of Table 9 below as the ratio of the fraction of the aptamer bound to the nitrocellulose in the presence of the target protein to the fraction of aptamer bound in the absence of the target protein. Of the three sequence families, members of Family #1 and #2 and two individual, non-family aptamers, bound to both human vWF domain A1 (SEQ ID NO 5) and rabbit vWF domain A1 (SEQ ID NO 6).
(§3) All unique clones were assayed in a 3-point dot blot screen (no protein target control, 100 nM human vWF A1 domain (SEQ ID NO 5), or 100 nM rabbit vWF A1 domain (SEQ ID NO 6). The data are presented in the third and fourth columns of Table 14 below as the ratio of the fraction of the aptamer bound to the nitrocellulose in the presence of the target protein to the fraction of aptamer bound in the absence of the target protein.

Series [3] concerns rabbit vWF A1 domain (SEQ ID NO 6). Put plainly: 3-point dot blot screen, rabbit vWF A1 domain. It counts as binding. The following applies: rRfY aptamers; 100 nM rabbit vWF A1 domain; ratio of fraction bound with target to without.
rabbit vWF A1 domain (SEQ ID NO 6), sequence (as listed by the source): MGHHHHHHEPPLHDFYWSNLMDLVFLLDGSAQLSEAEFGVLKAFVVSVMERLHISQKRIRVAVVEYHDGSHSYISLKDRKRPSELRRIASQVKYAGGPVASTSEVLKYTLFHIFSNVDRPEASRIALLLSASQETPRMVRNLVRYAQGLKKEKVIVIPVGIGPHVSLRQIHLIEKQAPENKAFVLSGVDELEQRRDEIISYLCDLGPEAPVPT
Text: as §1, §2, §3
When a significant positive ratio of binding of DNA in the presence of human or rabbit vWF A1 domain versus in the absence of protein was seen, the pools were cloned using the TOPO TA cloning kit (Invitrogen Cat. #45-0641, Carlsbad, Calif.) according to the manufacturer's instructions. Round 7 and 11 pool templates were cloned and sequenced (218 total sequences), producing 146 unique clones within 12 sequence families of which sequences from six families show vWF target binding activity. All unique clones were assayed twice in a 3-point dot blot screen (no protein target control, 20 nM full length human vWF (Calbiochem Cat. #681300, La Jolla, Calif.), or 20 nM rabbit vWF A1 domain. The data is presented in the third and fourth columns of Table 17 below as the ratio of the fraction of the aptamer bound to the nitrocellulose in the presence of the target protein to the fraction of aptamer bound in the absence of the target protein.

human vWF A1 domain (SEQ ID NO 5), sequence (P04275 with tags, fused parts or gaps T1381A): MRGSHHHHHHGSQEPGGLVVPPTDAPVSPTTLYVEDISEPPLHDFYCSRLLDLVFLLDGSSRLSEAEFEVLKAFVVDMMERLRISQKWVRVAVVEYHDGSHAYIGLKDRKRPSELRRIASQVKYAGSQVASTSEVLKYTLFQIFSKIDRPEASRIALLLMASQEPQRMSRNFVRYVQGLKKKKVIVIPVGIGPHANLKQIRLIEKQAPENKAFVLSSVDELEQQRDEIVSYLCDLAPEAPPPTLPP

Usually Kd stands for the constant that tells how readily two partners part at equilibrium. “dGdGdCdGTdGdCdAdGTdGdCdCTTdCdGdGdCdCdGTmGdCdGdGTmGmCdCmUdCdCmGmUmCdAdCdGdCdC-3T (dGdGdCdGdTdGdCdAdGdTdGdCdCdTdTdCdGdGdCdCdGdTmGdCdGdGdTmGmCdCmUdCdCmGmUmCdAdCdGdCdC[invdT]; aptamer) [ARC1340]”: in series [1] (Phase 2 modification), the “% binding @ 100 nM vWF” value is 43% and the dissociation constant Kd is 7.4 nM.
“dGdGdCdGTdGdCdAmGmUdGdCdCTTdCdGdGdCdCmGTmGdCdGdGTdGdCdCTdCdCmGmUmCdAdCdGdCdC-3T (dGdGdCdGdTdGdCdAmGmUdGdCdCdTdTdCdGdGdCdCmGdTmGdCdGdGdTdGdCdCdTdCdCmGmUmCdAdCdGdCdC[invdT]; aptamer) [ARC1339]”: in series [1] (Phase 2 modification), the “% binding @ 100 nM vWF” value came out at 39% and the Kd is 2.4 nM.
As to “mCmCmGmGmCdCmG-s-TmGdCdGdGTmGmCdCmUdCdCmGmUdCmAmCmGmUmUmCmCmGmUdGdCdAmGmUmGmCmCmGmG-3T (mCmCmGmGmCdCmG*dTmGdCdGdGdTmGmCdCmUdCdCmGmUdCmAmCmGmUmUmCmCmGmUdGdCdAmGmUmGmCmCmGmG[invdT]; aptamer) [ARC1546]”, in series [1] (Phase 4 and 5 modification), the “% binding @ 100 nM vWF” value is 26% and the Kd turned out to be 24 nM.
For the molecule “mCmCmGmGmCdCmG-s-TmGdCdGdGTmGmCdCmUdCdCmGmUmCmAmCmUmUmUmGmUdGdCdAmGmUmGmCmCmGmG-3T (mCmCmGmGmCdCmG*dTmGdCdGdGdTmGmCdCmUdCdCmGmUmCmAmCmUmUmUmGmUdGdCdAmGmUmGmCmCmGmG[invdT]; aptamer) [ARC1535]”, in series [1] (Phase 4 and 5 modification), the “% binding @ 100 nM vWF” value was found to be 48.3% and the equilibrium dissociation constant (Kd) worked out at 27.1 nM.
On the same counts, the results for “mCmGmGmCdCmG-s-TmGdCdGdGTmGmCdCmUdCdCmGmUmCmAmCmUmUmUmGmUdGdCdAmGmUmGmCmCmG-3T (mCmGmGmCdCmG*dTmGdCdGdGdTmGmCdCmUdCdCmGmUmCmAmCmUmUmUmGmUdGdCdAmGmUmGmCmCmG[invdT]; aptamer) [ARC1534]” are 25.6% and 62.8 nM.
“mCmGmUdGdCdAmGmUmGmCmCPEGmGmGmCdCmG-s-TmGdCdGdGTmGmCdCmUdCdCmGmUdCmAmCmG-3T (mCmGmUdGdCdAmGmUmGmCmC[PEG]mGmGmCdCmG*dTmGdCdGdGdTmGmCdCmUdCdCmGmUdCmAmCmG[invdT]; aptamer) [ARC1531]”: in series [1] (Phase 4 and 5 modification), the “% binding @ 100 nM vWF” value turned out to be 20.0% and the Kd amounted to 1.5 nM.
On the same counts, the results for “mCmGmUdGdCdAmGmUmGmCmCPEGmGmGmCdCmG-s-TmGdCdGdGTmGmCdCmUdCdCmGmUmCmAmCmG-3T (mCmGmUdGdCdAmGmUmGmCmC[PEG]mGmGmCdCmG*dTmGdCdGdGdTmGmCdCmUdCdCmGmUmCmAmCmG[invdT]; aptamer) [ARC1532]” are 19.3% and 2.6 nM.
On the same counts, the results for “mCmGmUdGdCdAmGmUmGmCmCmUmUmCmGmGmCdCmG-s-TmGdCdGdGTmGmCdCmUdCdCmGmUmCmAmCmG-3T (mCmGmUdGdCdAmGmUmGmCmCmUmUmCmGmGmCdCmG*dTmGdCdGdGdTmGmCdCmUdCdCmGmUmCmAmCmG[invdT]; aptamer) [ARC1529]” are 22.6% and 12.3 nM.
In the case of “mCmGmUdGdCdAmGmUmGmCmCmUmUmUmGmGmCdCmG-s-TmGdCdGdGTmGmCdCmUdCdCmGmUmCmAmCmG-3T (mCmGmUdGdCdAmGmUmGmCmCmUmUmUmGmGmCdCmG*dTmGdCdGdGdTmGmCdCmUdCdCmGmUmCmAmCmG[invdT]; aptamer) [ARC1530]”, in series [1] (Phase 4 and 5 modification), the “% binding @ 100 nM vWF” value was found to be 19.2% and the Kd came to 15 nM.
On the same counts, the results for “mGmCmGmUdGdCdAmGmUmGmCmCPEGmGmGmCdCmG-s-TmGdCdGdGTmGmCdCmUdCdCmGmUdCmAmCmGmC-3T (mGmCmGmUdGdCdAmGmUmGmCmC[PEG]mGmGmCdCmG*dTmGdCdGdGdTmGmCdCmUdCdCmGmUdCmAmCmGmC[invdT]) [ARC1527]” are 14.1% and 3.4 nM.
As for “mGmCmGmUdGdCdAmGmUmGmCmCPEGmGmGmCdCmG-s-TmGdCdGdGTmGmCdCmUdCdCmGmUmCmAmCmGmC-3T (mGmCmGmUdGdCdAmGmUmGmCmC[PEG]mGmGmCdCmG*dTmGdCdGdGdTmGmCdCmUdCdCmGmUmCmAmCmGmC[invdT]; aptamer) [ARC1528]”, in series [1] (Phase 4 and 5 modification), the “% binding @ 100 nM vWF” value is 10.2% and the Kd is 4.2 nM.
On the same counts, the results for “mGmCmGmUdGdCdAmGmUmGmCmCmUmUmCmGmGmCdCmG-s-TmGdCdGdGTmGmCdCmUdCdCmGmUmCmAmCmGmC-3T (mGmCmGmUdGdCdAmGmUmGmCmCmUmUmCmGmGmCdCmG*dTmGdCdGdGdTmGmCdCmUdCdCmGmUmCmAmCmGmC[invdT]) [ARC1524]” are 26.5% and 5.7 nM.
The like results for “mGmCmGmUdGdCdAmGmUmGmCmCmUmUmUmGmGmCdCmG-s-TmGdCdGdGTmGmCdCmUdCdCmGmUmCmAmCmGmC-3T (mGmCmGmUdGdCdAmGmUmGmCmCmUmUmUmGmGmCdCmG*dTmGdCdGdGdTmGmCdCmUdCdCmGmUmCmAmCmGmC[invdT]) [ARC1526]” were, in that order, 29.0% and 4.7 nM.
Consider “mGmGmCmGmU-s-dG-s-dC-s-dAmGmUmGmCmCmUmUmCmGmGmC-s-dCmG-s-TmG-s-dC-s-dG-s-dG-s-TmGmC-s-dCmU-s-dC-s-dCmGmUmCmAmCmGmCmC-3T (mGmGmCmGmU*dG*dC*dAmGmUmGmCmCmUmUmCmGmGmC*dCmG*dTmG*dC*dG*dG*dTmGmC*dCmU*dC*dCmGmUmCmAmCmGmCmC[invdT]) [ARC1345]”, for which, in series [1] (Phase 2 modification), the “% binding @ 100 nM vWF” value is reported as 29% and the Kd amounted to 12.1 nM.
Consider “mGmGmCmGmUdG-s-dC-s-dAmGmUmGmCmCmUmUmCmGmGmC-s-dCmGTmGdC-s-dG-s-dGTmGmCdCmUdC-s-dCmGmUmCmAmCmGmCmC-3T (mGmGmCmGmUdG*dC*dAmGmUmGmCmCmUmUmCmGmGmC*dCmGdTmGdC*dG*dGdTmGmCdCmUdC*dCmGmUmCmAmCmGmCmC[invdT]) [ARC1344]”, for which, in series [1] (Phase 2 modification), the “% binding @ 100 nM vWF” value turned out to be 17% and the Kd was 4.8 nM.
Consider “mGmGmCmGmUdG-s-dCdAmGmUmGmCmCmUmUmCmGmGmC-s-dCmGTmGdCdG-s-dGTmGmCdCmUdC-s-dCmGmUmCmAmCmGmCmC-3T (mGmGmCmGmUdG*dCdAmGmUmGmCmCmUmUmCmGmGmC*dCmGdTmGdCdG*dGdTmGmCdCmUdC*dCmGmUmCmAmCmGmCmC[invdT]) [ARC1343]”, for which, in series [1] (Phase 2 modification), the “% binding @ 100 nM vWF” value turned out to be 21% and the Kd was found to be 23.9 nM.
Take “mGmGmCmGmUdGdCdAdGTdGdCdCTTdCdGdGdCdCdGTdGdCdGdGTdGdCdCTdCdCdGTdCmAmCmGmCmC-3T (mGmGmCmGmUdGdCdAdGdTdGdCdCdTdTdCdGdGdCdCdGdTdGdCdGdGdTdGdCdCdTdCdCdGdTdCmAmCmGmCmC[invdT]; aptamer) [ARC1338]”: in series [1] (Phase 2 modification), the “% binding @ 100 nM vWF” value is 21% and the Kd stood at 7.4 nM.
Regarding “mGmGmCmGmUdGdCdAmGmUmGmCmCmUmUmCmGmGmCdCdGTdGdCdGdGTdGdCdCTdCdCdGTdCmAmCmGmCmC-3T (mGmGmCmGmUdGdCdAmGmUmGmCmCmUmUmCmGmGmCdCdGdTdGdCdGdGdTdGdCdCdTdCdCdGdTdCmAmCmGmCmC[invdT]; aptamer) [ARC1341]”, in series [1] (Phase 2 modification), the “% binding @ 100 nM vWF” value is listed as 26% and the Kd was determined as 22.5 nM.
The like results for “mGmGmCmGmUdGdCdAmGmUmGmCmCmUmUmCmGmGmCdCmGTmGdCdGdGTmGmCdCmUdCdCmGmUmCmAmCmGmCmC-3T (mGmGmCmGmUdGdCdAmGmUmGmCmCmUmUmCmGmGmCdCmGdTmGdCdGdGdTmGmCdCmUdCdCmGmUmCmAmCmGmCmC[invdT]; aptamer) [ARC1342]” were, in that order, 33% and 15.6 nM.

B1: AMX201.B3: rRfY aptamer clone (nucleic acid)
chain: rGrGrArGfCrGfCrAfCfUfCrArGfCfCrAfCrArGrArGfCfCfCfUrGrArGfUrGfUrAfUrGrAfUfCrGfCfCrGrArGrAfUfCfUrAfUfCrGrAfUrGfCfUfUfUfUfUfCrGrAfCfCfUfCfUfCfUrGfCfUrArGfC
B1: the “Screen- Human/No Protein” value in series [2] is 1.69. In series [3], the “Screen- Rabbit/No Protein” value is recorded as 1.64.
